# Measurements as given in ChEMBL document CHEMBL1132475, “Synthesis and in vitro anti-HIV activity in human monocyte-derived macrophages of 2-oxothiazolidine-4(R)-carboxylic acid derivatives” (1999).
# Organism: Homo sapiens
# Test: The compound was tested for antiviral activity against HIV-1/Ba-L-infected monocyte-derived macrophages in human at a concentration of 0.5 mM
# Assay type: functional
# Conditions: at 0.5 mM
row,Compound,Untreated control [%]
1,O=C1N[C@H](C(=O)OCC(=O)c2ccccc2)CS1,69
2,O=C1N[C@H](C(=O)O)CS1 [PROCYSTEINE],81

# Organism: Homo sapiens
# Test: The compound was tested for antiviral activity against HIV-1/Ba-L-infected monocyte-derived macrophages in human at a concentration of 2 mM
# Assay type: functional
# Conditions: not given
row,Compound,Percent of untreated control
1,CC(=O)N1C(=O)SC[C@H]1C(=O)O,34%
2,CCOC(=O)[C@@H]1CSC(=O)N1C(=O)CC[C@H](N)C(=O)O.Cl,37%
3,Cl.N[C@@H](CCC(=O)N1C(=O)SC[C@H]1C(=O)NCC(=O)O)C(=O)O,159%
4,Cl.N[C@@H](CCC(=O)N1C(=O)SC[C@H]1C(=O)O)C(=O)O,83%
5,CC(C)(C)OC(=O)CNC(=O)[C@@H]1CSC(=O)N1,104%
6,O=C(O)CNC(=O)[C@@H]1CSC(=O)N1,45%
7,CCOC(=O)[C@@H]1CSC(=O)N1,86%
8,CC(C)(C)OC(=O)N[C@@H](CCC(=O)N1C(=O)SC[C@H]1C(=O)O)C(=O)OC(C)(C)C,102%
9,CC(=O)N[C@@H](CS)C(=O)O [ACETYLCYSTEINE],88%
10,O=C1N[C@H](C(=O)O)CS1 [PROCYSTEINE],37
